From patent US9549932B2, “2-(morpholin-4-yl)-1,7-naphthyridines” (BAYER PHARMA AKTIENGESELLSCHAFT, priority 2014, dated 2017)

biological target: full-length human ATR protein (Homo sapiens (Human), UniProt Q13535); assay: Binding assay ATR (TR-FRET tracer displacement); details: tracer A, TR-FRET; read-out: ATR binding (tracer A) IC50
Source text: To determine of binding activity of the test compounds, full-length human ATR protein was expressed and purified together with ATRIP as described above. Furthermore, a fluorescently labelled compound (either tracer A or B as described above) was used as a tracer molecule. Detection of the binding event of the tracer was achieved by time-resolved fluorescence energy transfer (TR-FRET). We used an anti-GST-Terbium antibody (CisBio) that binds to the GST-tag at the N-terminus of ATR-kinase. […] Displacement of the fluorescent tracer by a test compound leads to a reduction of the TR-FRET-signal.
For the assay 50 nl of a 100-fold concentrated solution of the test compound in DMSO was pipetted into a black low volume 384well microtiter plate (MTP, Greiner Bio-One, Frickenhausen, Germany). […] The ATR-working solution was incubated for 30 min at 22° C. prior to dispensing to pre-form the complex of antiGST-Tb+GST-ATR+ATRIP. Then, 3 μl of the ATR-working solution were added to the test compound and the mixture was incubated for 10 min at 22° C. to allow pre-binding of the test compounds to ATR/ATRIP. Then, 2 μl of a 100 nM solution of either tracer A or B in assay buffer were added to the ATR-working solution. The resulting mixture was incubated for 30 min at 22° C. […] The dilution series were prepared separately before the assay on the level of the 100 fold concentrated solutions in DMSO by serial 1:3.4 dilutions in duplicate values for each concentration. IC50 values were calculated by a 4 parameter fit using standard software (GraphPad prism or equivalent).

full-length human ATR protein, sequence (Q13535 other isoform, or with tags, fused parts or gaps): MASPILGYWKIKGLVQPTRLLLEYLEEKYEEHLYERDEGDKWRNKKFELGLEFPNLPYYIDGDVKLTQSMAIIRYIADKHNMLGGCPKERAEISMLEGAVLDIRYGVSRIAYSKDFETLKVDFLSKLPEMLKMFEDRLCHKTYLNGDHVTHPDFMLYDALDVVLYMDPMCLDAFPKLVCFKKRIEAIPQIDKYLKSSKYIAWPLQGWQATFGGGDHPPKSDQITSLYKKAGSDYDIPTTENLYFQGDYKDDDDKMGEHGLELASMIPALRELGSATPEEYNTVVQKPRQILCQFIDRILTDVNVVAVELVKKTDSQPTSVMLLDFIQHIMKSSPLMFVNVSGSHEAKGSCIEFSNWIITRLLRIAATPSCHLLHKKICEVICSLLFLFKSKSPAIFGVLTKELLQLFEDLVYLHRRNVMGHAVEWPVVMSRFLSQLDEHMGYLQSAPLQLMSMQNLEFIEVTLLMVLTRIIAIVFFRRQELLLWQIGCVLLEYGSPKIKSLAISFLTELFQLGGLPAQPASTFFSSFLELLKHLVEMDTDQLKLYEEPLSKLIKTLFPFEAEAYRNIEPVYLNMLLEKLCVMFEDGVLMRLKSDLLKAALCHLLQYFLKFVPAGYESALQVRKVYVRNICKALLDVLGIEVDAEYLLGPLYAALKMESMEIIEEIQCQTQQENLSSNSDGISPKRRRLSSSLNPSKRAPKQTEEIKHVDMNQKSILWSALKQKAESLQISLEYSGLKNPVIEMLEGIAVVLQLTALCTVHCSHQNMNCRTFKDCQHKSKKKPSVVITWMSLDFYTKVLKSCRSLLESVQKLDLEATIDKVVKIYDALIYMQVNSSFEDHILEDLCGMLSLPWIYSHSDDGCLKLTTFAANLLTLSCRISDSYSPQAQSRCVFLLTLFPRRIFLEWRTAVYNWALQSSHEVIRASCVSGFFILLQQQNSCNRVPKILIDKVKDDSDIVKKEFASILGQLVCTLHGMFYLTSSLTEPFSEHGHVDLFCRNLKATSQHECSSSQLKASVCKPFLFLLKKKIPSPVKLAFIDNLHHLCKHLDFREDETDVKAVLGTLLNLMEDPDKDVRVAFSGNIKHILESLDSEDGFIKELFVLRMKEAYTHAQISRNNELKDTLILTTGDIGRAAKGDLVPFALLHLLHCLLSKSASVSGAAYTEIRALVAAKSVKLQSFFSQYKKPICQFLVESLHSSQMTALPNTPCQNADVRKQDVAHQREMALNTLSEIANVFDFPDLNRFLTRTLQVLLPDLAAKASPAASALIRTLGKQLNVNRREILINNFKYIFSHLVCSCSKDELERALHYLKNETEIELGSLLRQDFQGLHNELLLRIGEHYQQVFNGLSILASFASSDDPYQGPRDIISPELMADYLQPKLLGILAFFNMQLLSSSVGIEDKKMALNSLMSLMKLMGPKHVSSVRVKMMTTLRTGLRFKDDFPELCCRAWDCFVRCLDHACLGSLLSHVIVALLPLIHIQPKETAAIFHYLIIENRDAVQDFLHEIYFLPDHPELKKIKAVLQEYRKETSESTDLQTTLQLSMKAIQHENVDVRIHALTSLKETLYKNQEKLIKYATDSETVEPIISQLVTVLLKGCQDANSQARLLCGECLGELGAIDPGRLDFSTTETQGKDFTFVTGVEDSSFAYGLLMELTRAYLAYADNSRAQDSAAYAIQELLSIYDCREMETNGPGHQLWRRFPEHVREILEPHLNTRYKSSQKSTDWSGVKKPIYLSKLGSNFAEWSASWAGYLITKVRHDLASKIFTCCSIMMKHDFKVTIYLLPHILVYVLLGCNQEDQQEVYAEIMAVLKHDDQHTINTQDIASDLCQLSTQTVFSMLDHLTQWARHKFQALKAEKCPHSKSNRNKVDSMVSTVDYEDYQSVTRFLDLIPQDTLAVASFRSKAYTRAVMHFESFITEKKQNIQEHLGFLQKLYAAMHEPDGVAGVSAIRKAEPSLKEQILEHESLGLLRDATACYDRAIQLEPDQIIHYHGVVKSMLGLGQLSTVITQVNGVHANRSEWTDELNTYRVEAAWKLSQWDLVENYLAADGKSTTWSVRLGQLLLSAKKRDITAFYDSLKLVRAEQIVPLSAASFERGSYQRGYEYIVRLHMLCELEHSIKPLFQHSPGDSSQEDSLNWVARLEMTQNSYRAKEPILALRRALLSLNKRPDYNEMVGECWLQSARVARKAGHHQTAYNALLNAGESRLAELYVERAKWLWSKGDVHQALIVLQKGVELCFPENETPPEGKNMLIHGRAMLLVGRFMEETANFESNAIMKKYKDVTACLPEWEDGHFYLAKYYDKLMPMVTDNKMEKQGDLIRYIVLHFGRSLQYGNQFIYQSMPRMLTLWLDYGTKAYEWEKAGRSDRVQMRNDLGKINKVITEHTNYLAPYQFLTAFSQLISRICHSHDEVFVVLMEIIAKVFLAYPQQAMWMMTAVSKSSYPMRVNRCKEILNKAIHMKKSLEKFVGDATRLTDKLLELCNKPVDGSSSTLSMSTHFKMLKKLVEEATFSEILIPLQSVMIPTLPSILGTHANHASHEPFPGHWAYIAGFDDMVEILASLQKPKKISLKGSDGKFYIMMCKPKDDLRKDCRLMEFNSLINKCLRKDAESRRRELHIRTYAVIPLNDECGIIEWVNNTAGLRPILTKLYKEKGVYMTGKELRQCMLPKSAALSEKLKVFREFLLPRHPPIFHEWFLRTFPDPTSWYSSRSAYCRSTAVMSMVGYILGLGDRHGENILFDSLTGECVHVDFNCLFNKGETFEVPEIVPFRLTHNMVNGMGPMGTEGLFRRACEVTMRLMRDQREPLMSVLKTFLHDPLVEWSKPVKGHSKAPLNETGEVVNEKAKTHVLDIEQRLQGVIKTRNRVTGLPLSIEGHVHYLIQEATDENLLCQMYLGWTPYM
full-length human ATR protein, sequence (Q8WXE1 other isoform, or with tags, fused parts or gaps partner): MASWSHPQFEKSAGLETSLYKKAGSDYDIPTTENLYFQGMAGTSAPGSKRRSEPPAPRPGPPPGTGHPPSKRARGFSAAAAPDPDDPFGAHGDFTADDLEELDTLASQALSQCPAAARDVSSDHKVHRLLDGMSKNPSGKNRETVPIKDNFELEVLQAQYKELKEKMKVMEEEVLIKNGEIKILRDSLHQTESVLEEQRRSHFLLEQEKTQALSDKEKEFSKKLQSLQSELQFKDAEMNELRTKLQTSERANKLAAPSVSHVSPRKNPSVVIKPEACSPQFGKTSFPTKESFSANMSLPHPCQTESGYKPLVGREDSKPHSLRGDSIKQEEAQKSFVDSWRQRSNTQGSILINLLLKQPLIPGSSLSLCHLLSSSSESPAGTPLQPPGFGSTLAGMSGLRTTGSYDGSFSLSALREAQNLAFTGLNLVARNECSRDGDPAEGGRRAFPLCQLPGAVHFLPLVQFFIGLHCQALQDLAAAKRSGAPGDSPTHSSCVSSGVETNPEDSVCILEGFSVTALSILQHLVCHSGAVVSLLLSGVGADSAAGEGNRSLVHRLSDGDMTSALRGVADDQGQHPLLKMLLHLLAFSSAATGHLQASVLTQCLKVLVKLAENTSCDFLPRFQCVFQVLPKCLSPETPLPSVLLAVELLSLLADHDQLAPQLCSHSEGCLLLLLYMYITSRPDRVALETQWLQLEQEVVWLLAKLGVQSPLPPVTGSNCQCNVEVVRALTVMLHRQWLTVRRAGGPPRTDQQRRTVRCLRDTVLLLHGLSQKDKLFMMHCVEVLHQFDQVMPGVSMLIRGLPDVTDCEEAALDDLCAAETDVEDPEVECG

Q: How did the IC50 turn out when `C[C@@H]1COCCN1c1cc(-c2ccc(N3CCNCC3)cc2F)c2ccnc(-c3ccn[nH]3)c2n1` [Example 81, 4-[2-fluoro-4-(piperazin-1-yl)phenyl]-2-[(3R)-3-methylmorpholin-4-yl]-8-(1H-pyrazol-5-yl)-1,7-naphthyridine] was run?
A: 14.3 nM

Q: How did the IC50 turn out when `c1cc(-c2cc(N3CCOCC3)nc3c(-c4ccn[nH]4)nccc23)ccn1` [Example 221, 2-(morpholin-4-yl)-8-(1H-pyrazol-5-yl)-4-(pyridin-4-yl)-1,7-naphthyridine] was run?
A: 196 nM

Q: `CN(c1ccc(F)cc1)c1cc(N2CCOCC2)nc2c(-c3ccn[nH]3)nccc12` [Example 431, N-(4-fluorophenyl)-N-methyl-2-(morpholin-4-yl)-8-(1H-pyrazol-5-yl)-1,7-naphthyridin-4-amine] was tested. Which IC50 did it give?
A: 34.7 nM

Q: `C[C@@H]1COCCN1c1cc(-c2cncn2Cc2ccccc2)c2ccnc(-c3ccn[nH]3)c2n1` [Example 76, 4-(1-benzyl-1H-imidazol-5-yl)-2-[(3R)-3-methylmorpholin-4-yl]-8-(1H-pyrazol-5-yl)-1,7-naphthyridine] was tested. Which IC50 did it give?
A: 8.91 nM

Q: Which IC50 does the source give for `CSc1cncc(-c2cc(N3CCOCC3)nc3c(-c4ccn[nH]4)nccc23)c1` [Example 400, 4-[5-(methylsulfanyl)pyridin-3-yl]-2-(morpholin-4-yl)-8-(1H-pyrazol-5-yl)-1,7-naphthyridine] here?
A: 300 nM

Q: Which IC50 does the source give for `COc1cncc(-c2cc(N3CCOCC3)nc3c(-c4ccn[nH]4)nccc23)c1` [Example 353, 4-(5-methoxypyridin-3-yl)-2-(morpholin-4-yl)-8-(1H-pyrazol-5-yl)-1,7-naphthyridine] here?
A: 242 nM

Q: `C1=CCN(c2cc(N3CCOCC3)nc3c(-c4ccn[nH]4)nccc23)C1` [Example 417, 4-(2,5-dihydro-1H-pyrrol-1-yl)-2-(morpholin-4-yl)-8-(1H-pyrazol-5-yl)-1,7-naphthyridine] was tested. Which IC50 did it give?
A: 1070 nM

Q: How did the IC50 turn out when `CS(=O)(=NC#N)c1ccc(-c2cc(N3CCOCC3)nc3c(-c4ccn[nH]4)nccc23)cc1` (stereo not shown) [Example 191, (methyl{4-[2-(morpholin-4-yl)-8-(1H-pyrazol-5-yl)-1,7-naphthyridin-4-yl]phenyl}oxido-λ^6-sulfanylidene)cyanamide] was run?
A: 44.1 nM

Q: How did the IC50 turn out when `CC(=O)Nc1ccccc1-c1cc(N2CCOC[C@H]2C)nc2c(-c3ccn[nH]3)nccc12` [Example 166, N-(2-{2-[(3R)-3-methylmorpholin-4-yl]-8-(1H-pyrazol-5-yl)-1,7-naphthyridin-4-yl}phenyl)acetamide] was run?
A: 365 nM

Q: Which IC50 does the source give for `Cc1ccnc(F)c1-c1cc(N2CCOC[C@H]2C)nc2c(-c3ccn[nH]3)nccc12` [Example 90, 4-(2-fluoro-4-methylpyridin-3-yl)-2-[(3R)-3-methylmorpholin-4-yl]-8-(1H-pyrazol-5-yl)-1,7-naphthyridine] here?
A: 10.6 nM

Q: Which IC50 does the source give for `O=S(=O)(c1ccccc1)n1c(-c2cc(N3CCOCC3)nc3c(-c4ccn[nH]4)nccc23)cc2ccccc21` [Example 355, 2-(morpholin-4-yl)-4-[1-(phenylsulfonyl)-1H-indol-2-yl]-8-(1H-pyrazol-5-yl)-1,7-naphthyridine] here?
A: 484 nM

Q: For `CC1CCN(c2cc(N3CCOC[C@H]3C)nc3c(-c4ccn[nH]4)nccc23)CC1` [Example 109, 2-[(3R)-3-methylmorpholin-4-yl]-4-(4-methylpiperidin-1-yl)-8-(1H-pyrazol-5-yl)-1,7-naphthyridine], which IC50 is on record?
A: 9.14 nM

Q: How did the IC50 turn out when `CCSc1cc(N2CCOCC2)nc2c(-c3ccn[nH]3)nccc12` [Example 209, 4-(ethylsulfanyl)-2-(morpholin-4-yl)-8-(1H-pyrazol-5-yl)-1,7-naphthyridine] was run?
A: 385 nM

Q: Which IC50 does the source give for `O=C(NC1CC1)c1cccc(-c2cc(N3CCOCC3)nc3c(-c4ccn[nH]4)nccc23)c1` [Example 330, N-cyclopropyl-3-[2-(morpholin-4-yl)-8-(1H-pyrazol-5-yl)-1,7-naphthyridin-4-yl]benzamide] here?
A: 91.3 nM

Q: `C[S+]([O-])c1cc(N2CCOCC2)nc2c(-c3ccn[nH]3)nccc12` (stereo not shown) [Example 202, 4-(methylsulfinyl)-2-(morpholin-4-yl)-8-(1H-pyrazol-5-yl)-1,7-naphthyridine] was tested. Which IC50 did it give?
A: 78.3 nM

Q: Which IC50 does the source give for `COc1ccccc1-c1cc(N2CCOCC2)nc2c(-c3ccn[nH]3)nccc12` [Example 300, 4-(2-methoxyphenyl)-2-(morpholin-4-yl)-8-(1H-pyrazol-5-yl)-1,7-naphthyridine] here?
A: 181 nM

Q: `Cc1ccccc1-c1cc(N2CCOCC2)nc2c(-c3ccn[nH]3)nccc12` [Example 318, 4-(2-methylphenyl)-2-(morpholin-4-yl)-8-(1H-pyrazol-5-yl)-1,7-naphthyridine] was tested. Which IC50 did it give?
A: 30.6 nM

Q: For `CSCc1cc(N2CCOC[C@H]2C)nc2c(-c3ccn[nH]3)nccc12` [Example 186, 2-[(3R)-3-methylmorpholin-4-yl]-4-[(methylsulfanyl)methyl]-8-(1H-pyrazol-5-yl)-1,7-naphthyridine], which IC50 is on record?
A: 67.4 nM

Q: For `CC(C)COP(C)(=O)c1cc(N2CCOC[C@H]2C)nc2c(-c3ccn[nH]3)nccc12` (stereo partly drawn) [Example 127, Isobutyl methyl{2-[(3R)-3-methylmorpholin-4-yl]-8-(1H-pyrazol-5-yl)-1,7-naphthyridin-4-yl}phosphinate], which IC50 is on record?
A: 25.5 nM

Q: For `C[C@@H]1COCCN1c1cc(-c2cnn(C)c2)c2ccnc(-c3ccn[nH]3)c2n1` [Example 248, 2-[(3R)-3-methylmorpholin-4-yl]-4-(1-methyl-1H-pyrazol-4-yl)-8-(1H-pyrazol-5-yl)-1,7-naphthyridine], which IC50 is on record?
A: 24.1 nM

Q: For `CCS(=O)(=O)c1cc(N2CCOCC2)nc2c(-c3ccn[nH]3)nccc12` [Example 200, 4-(ethylsulfonyl)-2-(morpholin-4-yl)-8-(1H-pyrazol-5-yl)-1,7-naphthyridine], which IC50 is on record?
A: 86.9 nM

Q: Which IC50 does the source give for `CN(C)c1ccccc1-c1cc(N2CCOCC2)nc2c(-c3ccn[nH]3)nccc12` [Example 321, N,N-dimethyl-2-[2-(morpholin-4-yl)-8-(1H-pyrazol-5-yl)-1,7-naphthyridin-4-yl]aniline] here?
A: 44.4 nM

Q: How did the IC50 turn out when `Fc1ccc(-c2cc(N3CCOCC3)nc3c(-c4ccn[nH]4)nccc23)c(F)c1` [Example 340, 4-(2,4-difluorophenyl)-2-(morpholin-4-yl)-8-(1H-pyrazol-5-yl)-1,7-naphthyridine] was run?
A: 33.5 nM

Q: `CNC(=O)[C@@H]1CCCN1c1cc(N2CCOCC2)nc2c(-c3ccn[nH]3)nccc12` [Example 432, N-methyl-1-[2-(morpholin-4-yl)-8-(1H-pyrazol-5-yl)-1,7-naphthyridin-4-yl]-prolinamide] was tested. Which IC50 did it give?
A: 2040 nM

Q: Which IC50 does the source give for `C[C@@H]1COCCN1c1cc(-c2cnc3n2CCC3)c2ccnc(-c3ccn[nH]3)c2n1` [Example 118, 4-(6,7-dihydro-5H-pyrrolo[1,2-a]imidazol-3-yl)-2-[(3R)-3-methylmorpholin-4-yl]-8-(1H-pyrazol-5-yl)-1,7-naphthyridine] here?
A: 10.1 nM

Q: `C[C@@H]1COCCN1c1cc(-c2ccccc2)c2ccnc(-c3cc[nH]n3)c2n1` [Example 27, 2-((R)-3-methylmorpholin-4-yl)-4-phenyl-8-(2H-pyrazol-3-yl)-[1,7]naphthyridine] was tested. Which IC50 did it give?
A: 17.2 nM

Q: For `COc1ncc(C(F)(F)F)cc1-c1cc(N2CCOCC2)nc2c(-c3ccn[nH]3)nccc12` [Example 404, 4-[2-methoxy-5-(trifluoromethyl)pyridin-3-yl]-2-(morpholin-4-yl)-8-(1H-pyrazol-5-yl)-1,7-naphthyridine], which IC50 is on record?
A: 424 nM

Q: With `CCOC(=O)N=S(C)(=O)c1ccc(-c2cc(N3CCOCC3)nc3c(-c4ccn[nH]4)nccc23)cc1` (stereo not shown) [Example 1] as the molecule, how does the IC50 read?
A: 36.8 nM

Q: `COc1ncc(-c2cc(N3CCOC[C@H]3C)nc3c(-c4ccn[nH]4)nccc23)cc1C` [Example 96, 4-(6-methoxy-5-methylpyridin-3-yl)-2-[(3R)-3-methylmorpholin-4-yl]-8-(1H-pyrazol-5-yl)-1,7-naphthyridine] was tested. Which IC50 did it give?
A: 12.7 nM

Q: With `C[C@@H]1COCCN1c1cc(OCCN)c2ccnc(-c3ccn[nH]3)c2n1` [Example 55, 2-({2-[(3R)-3-methylmorpholin-4-yl]-8-(1H-pyrazol-5-yl)-1,7-naphthyridin-4-yl}oxy)ethanamine] as the molecule, how does the IC50 read?
A: 162 nM

Q: With `C[C@@H]1COCCN1c1cc(-c2cn(C)nc2C(F)(F)F)c2ccnc(-c3ccn[nH]3)c2n1` [Example 259, 2-[(3R)-3-methylmorpholin-4-yl]-4-[1-methyl-3-(trifluoromethyl)-1H-pyrazol-4-yl]-8-(1H-pyrazol-5-yl)-1,7-naphthyridine] as the molecule, how does the IC50 read?
A: 17.1 nM

Q: `c1ccc(-c2cc(N3CCOCC3)nc3c(-c4cc[nH]n4)nccc23)cc1` [Example 11, 2-(morpholin-4-yl)-4-phenyl-8-(1H-pyrazol-3-yl)-[1,7]naphthyridine] was tested. Which IC50 did it give?
A: 135 nM

Q: How did the IC50 turn out when `CNC(=O)c1cccc(-c2cc(N3CCOCC3)nc3c(-c4ccn[nH]4)nccc23)c1` [Example 297, N-methyl-3-[2-(morpholin-4-yl)-8-(1H-pyrazol-5-yl)-1,7-naphthyridin-4-yl]benzamide] was run?
A: 119 nM

Q: `C[C@@H]1COCCN1c1cc(-c2ccnn2C(C)(C)C)c2ccnc(-c3ccn[nH]3)c2n1` [Example 110, 4-(1-tert-butyl-1H-pyrazol-5-yl)-2-[(3R)-3-methylmorpholin-4-yl]-8-(1H-pyrazol-5-yl)-1,7-naphthyridine] was tested. Which IC50 did it give?
A: 13.5 nM

same assay, conditions: tracer B, TR-FRET; read-out: ATR binding (tracer B) IC50

Q: `C[C@@H]1COCCN1c1cc(-c2ccccc2)c2ccnc(-c3cc[nH]n3)c2n1` [Example 27, 2-((R)-3-methylmorpholin-4-yl)-4-phenyl-8-(2H-pyrazol-3-yl)-[1,7]naphthyridine] was tested. Which IC50 did it give?
A: 10.9 nM

Q: How did the IC50 turn out when `CCOC(=O)N=S(C)(=O)c1ccc(-c2cc(N3CCOCC3)nc3c(-c4ccn[nH]4)nccc23)cc1` (stereo not shown) [Example 1] was run?
A: 23.9 nM

Q: `c1ccc(-c2cc(N3CCOCC3)nc3c(-c4cc[nH]n4)nccc23)cc1` [Example 11, 2-(morpholin-4-yl)-4-phenyl-8-(1H-pyrazol-3-yl)-[1,7]naphthyridine] was tested. Which IC50 did it give?
A: 86.8 nM
